For five compounds, inhibition and Activity results are on record in ChEMBL document CHEMBL4339187, “Discovery of a new class of MTH1 inhibitor by X-ray crystallographic screening” (Eur J Med Chem, 2019).

Activity calls are given as the source filed them. The calls are words filed in the database; no cut-off is given here.

One assay has as its system Escherichia coli. Kind of assay: Inhibition of Escherichia coli inorganic pyrophosphatase assessed as reduction in orthophosphate formation at 0.3 to 10 uM measured after 40 using pyrophosphate as substrate by malachite green dye based absorbance assay.
The target in assay [1] is Oxidized purine nucleoside triphosphate hydrolase (Homo sapiens) (UniProt P36639). Description: Binding affinity to recombinant C-terminal 6xHis-tagged MTH1 (3 to 156 residues) (unknown origin) expressed in Escherichia coli BL21(DE3) cells assessed as decrease in fluorescence intensity at 1 to 10 uM after 3 mins by tryptophan fluorescence spectroscopy.
For assay [2] the target is unchanged. Description: Binding affinity to recombinant C-terminal 6xHis-tagged MTH1 (3 to 156 residues) (unknown origin) expressed in Escherichia coli BL21(DE3) cells assessed as decrease in fluorescence intensity at 1 to 200 uM after 3 mins by tryptophan fluorescence spectroscopy.

Regarding `COc1c(O)cc2oc3cc4c(c(O)c3c(=O)c2c1CC=C(C)C)CCC(C)(C)O4`, in the assay with Escherichia coli, the inhibition result is “inactive”. Besides, the outcome in assay [1] was Active.
`Nc1nc2c(ncn2[C@H]2C[C@H](O)[C@@H](COP(=O)(O)OP(=O)(O)OP(=O)(O)O)O2)c(=O)[nH]1`: the outcome in assay [2] and in assay [1] was Active.
Take `CC(C)=CCc1c(O)cc2oc3cc(O)c(O)c(CC=C(C)C)c3c(=O)c2c1O`: the result in assay [1] was Active.
As to `COc1c(O)cc2oc3cc(O)c(CC=C(C)C)c(O)c3c(=O)c2c1CC=C(C)C`, the inhibition result with Escherichia coli was “inactive”.
On to `CNc1cc(-c2cccc(Cl)c2Cl)nc(N)n1`, for which the outcome in assay [1] was Active.
